Where a name gives a salt, the structure may show the parent alone.
Test system: MTT (mouse pheochromocytoma)
Assay: IC50 of cell viability (ATP content)
Settings: (24 or 48 h)
In short: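 The IC50 was fitted with a four-parameter logistic equation to normalised CellTiter-Glo ATP luminescence from MTT mouse pheochromocytoma cells. These cells, in white 1536-well plates, had been treated for 24 or 48 hrs with library compounds at 8 final concentrations between 0.5 nM and 46 µM, and luminescence was read after 15 minutes. Positive-control wells served as 100% and DMSO wells as 0%.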

Structure (SMILES) | IC50 of cell viability [µM]
CCCC(=O)O[C@@]1([C@@H](C)C[C@H]2[C@@H]3CCC\4=C\C(=O)\C=C/[C@@]4(C)[C@@]3(F)[C@H](O)C[C@]12C)C(=O)COC(=O)CC [Antebate] | > 46
O=C1c2c(O)cccc2Cc2cccc(O)c21 [Anthralin] | > 46
O=C1c2ccccc2C(=O)c2ccccc21 [Anthraquinone] | > 46
CC1=NN=C2C\N=C(C3=CC=CC=C3Cl)/C4=C(SC(=C4)CCC(=O)N5CCOCC5)[N]12 [Apafant] | > 46
CN[C@H]1[C@H](O[C@@H]2O[C@@H](CO)[C@H](N)[C@H](O)[C@@H]2O)O[C@H]2C[C@@H](N)[C@@H](O[C@H]3[C@H](O)[C@H](O)[C@H](N)C[C@@H]3N)O[C@@H]2[C@H]1O [Apramycin] | > 46
C[C@@H](O[C@@H]1OCCN(Cc2nc(=O)[nH][nH]2)[C@@H]1c1ccc(F)cc1)c1cc(C(F)(F)F)cc(C(F)(F)F)c1 [Aprepitant] | > 46
COC(=O)C1=C(C)NC(C)=C(C(=O)OCC(C)=O)C1c1ccccc1[N+](=O)[O-] (stereo unspecified) [Aranidipine] | > 46
N=C(N)NCCC[C@H](NC(=O)[C@@H]1CCCN1C(=O)[C@@H]1CSSC[C@H](N)C(=O)N[C@@H](Cc2ccc(O)cc2)C(=O)N[C@@H](Cc2ccccc2)C(=O)N[C@@H](CCC(N)=O)C(=O)N[C@@H](CC(N)=O)C(=O)N1)C(=O)NCC(N)=O [Argipressin acetate] | > 46
Nc1ccc([As](=O)(O)O)cc1 [Arsanilic acid] | > 46
CO[C@H]1O[C@@H]2O[C@@]3(C)CC[C@H]4[C@H](C)CC[C@@H]([C@H]1C)[C@@]24OO3 [Artemetero] | > 46
CCCN[C@@H](C)C(=O)Nc1c(C)csc1C(=O)OC [Articaine hydrochloride] | > 46
CCCCCCCCCCCCCCCC(=O)OCC(O)C1OC(=O)C(O)=C1O (stereo unspecified) [Ascorbyl palmitate] | > 46
CN1C[C@@H]2c3ccccc3Oc3ccc(Cl)cc3[C@H]2C1 [Asenapine] | > 46
COC(=O)[C@H](Cc1ccccc1)NC(=O)[C@@H](N)CC(=O)O [Aspartame] | > 46
O=C(Nc1ccc([S+](=O)([O-])N2CCOCC2)cc1)c1cc(Cl)ccc1N[S+](=O)([O-])c1ccc(Cl)s1 [Ataciguat] | > 46
COC(=O)N[C@H](C(=O)N[C@@H](Cc1ccccc1)[C@@H](O)CN(Cc1ccc(-c2ccccn2)cc1)NC(=O)[C@@H](NC(=O)OC)C(C)(C)C)C(C)(C)C [Atazanavir] | > 46
CCC1(c2cnc[nH]2)Cc2ccccc2C1 [Atipamezole Hydrochloride] | > 46
CCC1(c2cnc[nH]2)Cc2ccccc2C1 [Atipamezole] | > 46
CCOc1ccc(C[C@H]2NC(=O)CCSSC[C@@H](C(=O)N3CCC[C@H]3C(=O)N[C@@H](CCCN)C(=O)NCC(N)=O)NC(=O)[C@H](CC(N)=O)NC(=O)[C@H]([C@@H](C)O)NC(=O)[C@H]([C@@H](C)CC)NC2=O)cc1 [Atosiban] | > 46
O\C1=C(/C2CCC(CC2)C3=CC=C(Cl)C=C3)C(=O)C4=C(C=CC=C4)C1=O (stereo unspecified) [Atovaquone] | > 46
COc1ccc(C[C@@H]2c3cc(OC)c(OC)cc3CC[N@@+]2(C)CCC(=O)OCCCCCOC(=O)CC[N@+]2(C)CCc3cc(OC)c(OC)cc3[C@H]2Cc2ccc(OC)c(OC)c2)cc1OC.O=S(=O)([O-])c1ccccc1.O=S(=O)([O-])c1ccccc1 [Atracurium besylate] | > 46

Structure (SMILES) | IC50 of cell viability [µM]
C[N@+]1([O-])[C@H]2CC[C@H]1C[C@H](OC(=O)[C@@H](CO)c1ccccc1)C2 [Atropine oxide] | > 46
C[N@+]1([O-])[C@@H]2CC[C@@H]1C[C@@H](OC(=O)[C@@H](CO)c1ccccc1)C2 [Atropine-N-oxide hydrochloride] | > 46
CN1[C@@H]2CC[C@H]1CC(OC(=O)C(CO)c1ccccc1)C2 (stereo partly specified) [Atropine] | > 46
CNC(=O)c1ccccc1Sc1ccc2c(/C=C/c3ccccn3)n[nH]c2c1 [Axitinib] | > 46
O=C(CCCN1CCN2CCCC2C1)c1ccc(F)cc1 (stereo unspecified) [Azabuperona] | > 46
O=C(CCN1CCN2CCCC2C1)N1c2ccccc2Sc2ccc(Cl)cc21 (stereo unspecified) [Azaclorzina] | > 46
Clc1ccc(C2(Cn3cncn3)OCCO2)c(Cl)c1 [Azaconazole] | > 46
OC(c1ccccc1)(c1ccccc1)C1CCNCC1 [Azacyclonol] | > 46
O=C(CCCN1CCN(c2ccccn2)CC1)c1ccc(F)cc1 [Azaperone] | > 46
CCC[C@@H]1C(=O)N2N(C1=O)\C(=N/C3=C2C=C(C)C=C3)N(C)C [Azapropazone] | > 46
CC(=O)OC[C@H]1O[C@H]([C@H](OC(C)=O)[C@@H]1OC(C)=O)N2\N=C/C(=O)NC2=O [Azaribine] | > 46
CN1CC\C(CC1)=C2/C3=CC=CC=C3CCC4=CC=CN=C24 [Azatadine] | > 46
Cn1cnc([N+](=O)[O-])c1Sc1ncnc2nc[nH]c12 [Azathioprine] | > 46
CC[C@H]1OC(=O)[C@H](C)[C@@H](O[C@H]2C[C@@](C)(OC)[C@@H](O)[C@H](C)O2)[C@H](C)[C@@H](O[C@@H]2O[C@H](C)C[C@H](N(C)C)[C@H]2O)[C@](C)(O)C[C@@H](C)CN(C)[C@H](C)[C@@H](O)[C@]1(C)O [Azithromycin] | > 46
[Na+].CC1(C)S[C@H]2[C@H](NC(=O)[C@@H](NC(=O)N3CCNC3=O)C4=CC=CC=C4)C(=O)[N@]2[C@H]1C([O-])=O [Azlocillin sodium salt] | > 46
[O-]/[N+](=N/c1ccccc1)c1ccccc1 [Azoxybenzene] | > 46
CO/C=C(/C(=O)OC)c1ccccc1Oc1cc(Oc2ccccc2C#N)ncn1 [Azoxystrobin] | > 46
C[C@H]1[C@H](NC(=O)/C(=N/OC(C)(C)C(=O)O)c2csc(N)n2)C(=O)N1[S+](=O)([O-])O [Aztreonam] | > 46
C=CCN1CCc2nc(N)sc2CC1 [B-HT 920] | > 46
CCN1CCc2nc(N)oc2CC1.Cl.Cl [B-HT 933 dihydrochloride] | > 46
NCC(CC(=O)O)c1ccc(Cl)cc1 (stereo unspecified) [BACLOFEN] | > 46

Structure (SMILES) | IC50 of cell viability [µM]
CNC1CCCN(c2c(F)cc3c(=O)c(C(=O)O)cn(C4CC4)c3c2OC)C1 (stereo unspecified) [BALOFLOXACIN HYDRATE] | > 46
O=C(O)CCNC(=O)c1ccc(/N=N/c2ccc(O)c(C(=O)O)c2)cc1 [BALSALAZIDE DISODIUM] | > 46
CCCCCCCCCCCCCCCCCCOCC(O)CO (stereo unspecified) [BATYL ALCOHOL] | > 46
NCC1O[C@@H](O[C@@H]2C(O)[C@H](O[C@H]3OC(CO)C(O)C(N)C3O)[C@@H](N)C[C@H]2N)C(N)C(O)C1O.O=[S+]([O-])(O)O (stereo partly specified) [BEKANAMYCIN SULFATE] | > 46
CCN(CC)CCOC(=O)C(O)(c1ccccc1)c1ccccc1 [BENACTYZINUM] | > 46
Cn1c(CCCC(=O)O)nc2cc(N(CCCl)CCCl)ccc21 [BENDAMUSTINUM] | > 46
O=C([O-])COc1nn(Cc2ccccc2)c2ccccc12 [BENDAZAC] | > 46
CC(Cc1cccc(C(F)(F)F)c1)NCCOC(=O)c1ccccc1.Cl (stereo unspecified) [BENFLUOREX HYDROCHLORIDE] | > 46
CC(=O)Nc1ccc(OC(=O)c2ccccc2OC(C)=O)cc1 [BENORILATE] | > 46
CCCCCCCCCCCCCC[N+](C)(C)Cc1ccccc1.O.[Cl-] [BENZALKONIUM CHLORIDE] | > 46
CN1C2CCC1C(C(=O)O)C(OC(=O)c1ccccc1)C2 (stereo unspecified) [BENZOYLECGONINE] | > 46
O=C(O)CNC(=O)CNC(=O)CNC(=O)CSC(=O)c1ccccc1 [BENZOYLMERCAPTOACETYLGLYCYLGLYCYLGLYCINE (Betiatide)] | > 46
CN1C2CCC1CC(OC(c1ccccc1)c1ccccc1)C2.O=[S+]([O-])(O)O (stereo unspecified) [BENZTROPINE] | > 46
O=C(/C=C/c1ccccc1)OCc1ccccc1 [BENZYL CINNAMATE] | > 46
O=C(OCc1ccccc1)c1cccnc1 [BENZYL NICOTINATE] | > 46
CC(C)COCC(CN(Cc1ccccc1)c1ccccc1)N1CCCC1 (stereo unspecified) [BEPRIDIL] | > 46
CC#CC[C@@H](C)[C@@H](O)/C=C/[C@H]1[C@H]2c3cccc(CCCC(=O)[O-])c3O[C@H]2C[C@@H]1O [BERAPROST SODIUM] | > 46
C[N+](C)(C)CC(=O)[O-].Cl [BETAINE HYDROCHLORIDE] | > 46
O=C(O)CCNC(=O)c1ccccc1 [BETAMIPRON] | > 46

Reference: the supplement of paper PMC3974653
